Source: patent publication US20070105808A1, “Inhibition of histone deacetylase” (MethylGene, Inc., priority 1999, published 2007)
Where a SMILES comes first, the peptide text is derived from it. [ ]: non-standard residue; d: D form. Aoe = N[C@@H](CCCCCC(=O)[C@@H]1CO1)C(=O)O; d = 2'-deoxy (DNA); m = 2'-O-methyl

Legend:
HDAC-1 protein = test: Western blotting analysis of HDAC-1 protein expression in transfected T24 cells; format: cell-based, human; details: FIG. 4; second generation oligonucleotides, T24 cells transfected twice with 50 nM, lysates 24 h after second transfection
Experimental: (§1) To do this, T24 cells were transfected with oligonucleotide using lipofectin as described above. Twenty-four hours later, the cells were lysed according to standard procedures. The whole cell extracts (50 μg) were resolved on 7-15% gradient SDS/PAGE, transferred to PVDF membrane (Amersham, Arlington Heights, Ill.), and subjected to Western blotting analysis with rabbit polyclonal HDAC1- and HDAC-2 specific antibodies (1:500, Santa Cruz Biotech., Santa Cruz, Calif.) were used. Detection was accomplished with a secondary anti-rabbit IgG-HR peroxidase antibody and an enhanced chemiluminescence detection kit (Amersham) accordingly to manufacturer's instructions.
T24 cells were transfected twice as described above with 50 nM oligonucleotide. Cell lysates were prepared twenty-four hours following the second transfection, resolved on 7-15% gradient SDS-PAGE, and transferred to PVDF membrane. The PVDF membrane blot was first blotted with anti-HDAC-1 antibody. Following detection with horseradish peroxidase-labelled secondary antibody and enhanced chemiluminescence, the blot was stripped, and re-probed with anti-HDAC-2 antibody. Following detection, the blot was stripped for a second time and re-probed with an actin-specific antibody to verify equal protein loading in the lanes.

HDAC-2 protein = test: Western blotting analysis of HDAC-2 protein expression in transfected T24 cells; format: cell-based, human; details: FIG. 3; 50 nM second generation oligonucleotide, T24 cells transfected twice, 48 hours after the first transfection
Experimental: as §1
Twenty-four hours later, the cells were transfected a second time with the same amount of the same oligonucleotide. Twenty-four hours after this (i.e., 48 hours after the first transfection), cellular proteins were prepared, resolved on 7-15% gradient SDS-PAGE, and subjected to Western blotting analysis as described in Example 1 with rabbit polyclonal HDAC2 specific antibody (1:500, Santa Cruz Biotech). Following blotting with the secondary anti-rabbit IgG-HR peroxidase antibody and visualization with the enhanced chemiluminescence detection kit (Amersham), the blot was stripped and re-probed with an antibody specific to actin to verify equal loading of all wells (data not shown). […]

[1] = system: cell cycle progression in cells; details: literature reports; cited from earlier work
histone deacetylase = details: Yoshida et al.; cited from earlier work

Row | Compound | cell cycle progression [1] | other results
1 | 5′-CAAUCGTCAGAGACTCCGAA-3′ (antisense CAAUCGTCAGAGACTCCGAA; sugars from the 5' end m4 d12 m4, backbone and methylation of C not given here) [MG2609, mismatch control oligonucleotide of HDAC-1 (MG2608)] |  | inhibition of HDAC-1 protein expression (HDAC-1 protein): failed to inhibit
2 | 5′-CUCCTTGACTGTACGCCAUG-3′ [MG2636] |  | inhibition of HDAC-2 protein expression (HDAC-2 protein): able to inhibit HDAC-2 protein expression
3 | C/C=C1\NC(=O)[C@H]2CSSCC/C=C/[C@H](CC(=O)N[C@H](C(C)C)C(=O)N2)OC(=O)[C@H](C(C)C)NC1=O [FR901228] | inhibit cell cycle progression in cells | 
4 | CC(/C=C/C(=O)NO)=C\[C@@H](C)C(=O)c1ccc(N(C)C)cc1 [Trichostatin A] | arrest cell cycle progression in cells in the G1 and G2 phases | inhibition of histone deacetylase activity (histone deacetylase): inhibit histone deacetylase activity
5 | O=C(CCCCCCC(=O)Nc1ccccc1)NO [suberoylanilide hydroxamic acid] | inhibit cell cycle progression in cells | 
6 | O=C1N[C@@H](Cc2ccccc2)C(=O)N2CCC[C@@H]2C(=O)N[C@@H](CCCCCC(=O)[C@@H]2CO2)C(=O)N[C@H]1Cc1ccccc1 [trapoxin] (cyclo(FF[dP][Aoe])) | inhibit cell cycle progression in cells | 
7 | CC(/C=C/C(=O)NO[C@@H]1O[C@H](CO)[C@@H](O)[C@H](O)[C@H]1O)=C\[C@@H](C)C(=O)c1ccc(N(C)C)cc1 [trichostatin C] | inhibit cell cycle progression in cells | 
8 | depudecin | inhibit cell cycle progression in cells | 
